# From ChEMBL document CHEMBL2311494, “Syntheses and evaluation of the antioxidant activity of novel methoxypsoralen derivatives” (Eur J Med Chem, 2013)
# pIC50: −log10 of the molar value. Calls of active or inactive are those of the source. The calls are words filed in the database; no cut-off is given here.
# What was measured:
# [1] = system: Radical scavenging activity; assay: Antioxidant activity assessed as DPPH radical scavenging activity at 100 uM after 20 mins by spectrophotometric analysis; assay type: functional
# [2] = Antioxidant activity assessed as inhibition of AAPH-induced linoleic acid lipid peroxidation at 100 uM by spectrophotometric analysis; assay type: functional
# [3] = system: Rattus norvegicus; assay: Toxicity against Fischer-344 rat up to 0.1 mmol/kg, ip; assay type: organism-based; settings: in vivo
# [4] = system: Radical scavenging activity; assay: Antioxidant activity assessed as DPPH radical scavenging activity at 100 uM after 60 mins by spectrophotometric analysis; assay type: functional
# [5] = Inhibition of soybean LOX using sodium linoleate as substrate by spectrophotometric analysis; design: species or system Glycine max; settings: for pIC50: read-out: IC50
# [6] = Cytotoxicity against human 1BR3 cells assessed as cell viability at 50 uM after 24 hrs by MTT assay; assay type: cell-based; settings: read-out: Activity
# [7] = system: Glycine max; assay: Inhibition of soybean LOX using sodium linoleate as substrate at 100 uM by spectrophotometric analysis
# [8] = Cytotoxicity against human 1BR3 cells assessed as cell viability at 20 uM after 24 hrs by MTT assay; assay type: cell-based; settings: read-out: Activity
# [9] = Cytotoxicity against human 1BR3 cells assessed as cell viability at 100 uM after 24 hrs by MTT assay; assay type: cell-based; settings: read-out: Activity
# [10] = Cytotoxicity against human 1BR3 cells assessed as cell viability at 1 uM after 24 hrs by MTT assay; assay type: cell-based; settings: read-out: Activity
# [11] = Cytotoxicity against human 1BR3 cells assessed as cell viability at 10 uM after 24 hrs by MTT assay; assay type: cell-based; settings: read-out: Activity
# [12] = system: Rattus norvegicus; assay: Antiinflammatory activity in Fischer-344 rat assessed as inhibition of carrageenan-induced paw edema at 0.01 mmol/kg, ip after 3.5 hrs relative to control; assay type: functional; settings: Fischer-344, ip
SMILES,Activity [1],inhibition [2],Activity [3],Activity [4],IC50 [5],"viability at 24 h, 50 µM [6]",inhibition [7],"viability at 24 h, 20 µM [8]","viability at 24 h, 100 µM [9]","viability at 24 h, 1 µM [10]","viability at 24 h, 10 µM [11]",pIC50 [5],inhibition in vivo at 10 µmol/kg [12]
CCOC(=O)/C=C/c1c2occc2c(OC)c2ccc(=O)oc12,inactive,8%,Non-toxic,inactive,Not Active,–,–,–,–,–,–,–,–
Cc1cc2cc3c(C)cc(=O)oc3c(C)c2o1 [TRIOXSALEN],inactive,inactive,–,inactive,–,92.2%,40%,95.2%,95.2%,107%,96.7%,–,–
Cc1oc2c(C)c3oc(=O)cc(C)c3cc2c1-c1ccc(/C=C/C(=O)O)cc1,inactive,84%,Non-toxic,inactive,–,–,13%,–,–,–,–,–,–
COc1c2occc2c(/C=C/C(=O)OCc2cccc(Oc3ccccc3)c2)c2ccc(=O)oc12,7%,89%,Non-toxic,9%,–,–,–,–,–,–,–,4.26,–
COc1c2occc2cc2ccc(=O)oc12 [METHOXSALEN],16%,5%,–,16%,–,92%,–,96.7%,89.6%,101%,98.1%,4.30,–
Cc1oc2c(C)c3oc(=O)cc(C)c3cc2c1-c1ccc(C(=O)O)cc1,inactive,80%,Non-toxic,inactive,Not Active,–,–,–,–,–,–,–,–
COc1c2occc2c(-c2ccc(C(=O)O)cc2)c2ccc(=O)oc12,11%,100%,Non-toxic,15%,Not Active,–,–,–,–,–,–,–,–
O=c1ccc2c(O)c3ccoc3cc2o1 [BERGAPTOL],34%,95%,–,36%,–,–,–,–,–,–,–,4.38,–
CCCCOC(=O)/C=C/c1c2ccoc2c(OC)c2oc(=O)ccc12,5%,79%,Non-toxic,7%,–,98.9%,–,99.6%,90.3%,96.7%,99.3%,5.22,57%
Cc1oc2c(C)c3oc(=O)cc(C)c3cc2c1/C=C/C(=O)OC(C)(C)C,11%,80%,Non-toxic,11%,–,34.6%,–,37%,22.2%,67.9%,55.6%,5.03,46%
COc1c2occc2c(/C=C/C(=O)OC(C)(C)C)c2ccc(=O)oc12,3%,89%,Non-toxic,3%,Not Active,–,–,–,–,–,–,–,–
COc1c2occc2c(/C=C/C(=O)O)c2ccc(=O)oc12,7%,62%,Non-toxic,7%,–,–,–,–,–,–,–,4.30,–
COc1c2occc2c(-c2ccc(/C=C/C(=O)O)cc2)c2ccc(=O)oc12,41%,12%,Non-toxic,44%,–,–,–,–,–,–,–,4.21,–
COc1c2ccoc2cc2oc(=O)ccc12 [BERGAPTEN],14%,49%,–,14%,Not Active,91.7%,–,99.4%,88.9%,105%,102%,–,–
CC(=O)c1c(C)oc2c(C)c3oc(=O)cc(C)c3cc12,14%,67%,–,14%,–,–,–,–,–,–,–,4.10,–
Cc1oc2c(C)c3oc(=O)cc(C)c3cc2c1/C=C/C(=O)O,11%,73%,Non-toxic,11%,–,–,9%,–,–,–,–,–,–
COc1c2ccoc2c(-c2ccc(C(=O)O)cc2)c2oc(=O)ccc12,22%,66%,Non-toxic,19%,–,–,–,–,–,–,–,4.22,–
COc1c2ccoc2c(-c2ccc(/C=C/C(=O)O)cc2)c2oc(=O)ccc12,22%,55%,Non-toxic,28%,–,18.5%,–,24.7%,13.3%,65.6%,55.6%,4.62,–

SMILES,Activity [1],inhibition [2],Activity [3],Activity [4],IC50 [5],"viability at 24 h, 50 µM [6]",inhibition [7],"viability at 24 h, 20 µM [8]","viability at 24 h, 100 µM [9]","viability at 24 h, 1 µM [10]","viability at 24 h, 10 µM [11]",pIC50 [5],inhibition in vivo at 10 µmol/kg [12]
COc1c2ccoc2c(/C=C/C(=O)O)c2oc(=O)ccc12,14%,55%,Non-toxic,14%,–,–,–,–,–,–,–,4.08,–
COc1c2occc2c(Br)c2ccc(=O)oc12,8%,62%,–,8%,–,–,–,–,–,–,–,4.40,–
CCOC(=O)/C=C/c1c(C)oc2c(C)c3oc(=O)cc(C)c3cc12,8%,77%,Non-toxic,60%,Not Active,–,–,–,–,–,–,–,–
O=c1ccc2cc3ccoc3c(O)c2o1 [XANTHOTOXOL],25%,5%,–,22%,–,–,–,–,–,–,–,4.05,–
COc1ccc2c(c1)c(CC(=O)O)c(C)n2C(=O)c1ccc(Cl)cc1 [INDOMETHACIN],–,–,Non-toxic,–,–,–,–,–,–,–,–,–,47%
CCOC(=O)/C=C/c1c2ccoc2c(OC)c2oc(=O)ccc12,5%,83%,Non-toxic,6%,–,–,–,–,–,–,–,4.12,–
CC(Cc1ccc(O)c(O)c1)C(C)Cc1ccc(O)c(O)c1 (stereo unspecified),81%,–,–,83%,–,–,–,–,–,–,–,–,–
Cc1oc2c(C)c3oc(=O)cc(C)c3cc2c1Br,inactive,35%,–,100%,Not Active,–,–,–,–,–,–,–,–
COc1c2occc2c(C(C)=O)c2ccc(=O)oc12,8%,85%,–,8%,–,–,–,–,–,–,–,4.00,–
Cc1c(C)c2c(c(C)c1O)CCC(C)(C(=O)O)O2 (stereo unspecified),–,63%,–,–,–,–,–,–,–,–,–,–,–
O=c1ccc2c(O)c3ccoc3c(Br)c2o1,20%,81%,–,56%,–,91.6%,–,95.2%,91%,97%,92.8%,4.52,–
COc1c2ccoc2c(/C=C/C(=O)OC(C)(C)C)c2oc(=O)ccc12,inactive,79%,Non-toxic,inactive,Not Active,–,–,–,–,–,–,–,–
O=c1ccc2c(Br)c3ccoc3c(O)c2o1,33%,83%,–,43%,–,–,–,–,–,–,–,4.30,–
Cc1oc2c(C)c3oc(=O)cc(C)c3cc2c1-c1ccc(/C=C/C(=O)OC(C)(C)C)cc1,inactive,41%,Non-toxic,inactive,–,–,33%,–,–,–,–,–,–
COc1c2ccoc2c(Br)c2oc(=O)ccc12,7%,83%,–,7%,–,–,–,–,–,–,–,4.05,–
COc1c2occc2c(-c2ccc(/C=C/C(=O)OC(C)(C)C)cc2)c2ccc(=O)oc12,15%,72%,Non-toxic,18%,–,66.3%,–,67.9%,46.3%,98.8%,74.1%,5.12,26.2%
COc1c2ccoc2c(-c2ccc(/C=C/C(=O)OC(C)(C)C)cc2)c2oc(=O)ccc12,8%,77%,Non-toxic,12%,–,–,–,–,–,–,–,4.00,–
